Source: patent US20200093128A1, “ACIDULATED SURFACTANT COMPOSITIONS AND METHODS OF REDUCING MICROBIAL LOAD” (The United States of America, as represented by the …, priority 2018, published 2020)
Read-outs that look alike come from different tables or passages of the source. Marks after values point to notes of the source that are not given here.

Experiments:
EHEC = conditions: cited from earlier work
[1] = tested on: S. enterica, L. monocytogenes or E. coli O157:H7; assay: BS EN 1276 chlorine test, summary over the three pathogens; type: cell-based; conditions: 48 ppm chlorine, 5 min, 3% bovine albumin (dirty conditions)
Salmonella [2] = conditions: Parsley, Cl 100 PPM, 5 min, Lapidot et al. (2006); cited from earlier work
Total Coliforms [3] = conditions: watercress, 200 ppm NaOCl, pH-unadjusted; cited from earlier work
[4] = tested on: Salmonella, E. coli, Listeria monocytogenes, coliforms or aerobic mesophilic bacteria; assay: Previous studies: produce treated with NaClO, summary of Table 1; type: cell-based; conditions: Table 1 studies, average 154.2 ppm free chlorine, average treatment time 5.42 min
EHEC & Salmonella = conditions: Lettuce, Cl 200 PPM, cited from earlier work
E. coli O157:H7 [5] = type: cell-based; conditions: dip-inoculated grape tomatoes, 100 ml wash, 2 min
From the text: (§1) This example illustrates an embodiment of the effectiveness of the inventive composition. […]. The four most acid-resistant strains out of the fourteen were selected for use in this study. These four strains consisted of cattle isolate #'s 199, 758, 851, and 859, provided by Dr. T. G. Nagaraja (Distinguished Microbiology Professor, Kansas State University, Department of Veterinary Medicine). Five outbreak strains of Listeria monocytogenes were used, including L499, L502, L008, L2624, and L2625, provided by Dr. Bassam Annous (USDA-ARS-ERRC). Four serovars of S. enterica (Salmonella Newport H1275 (ERRC culture collection)), St. Paul 02-517-1 (cantaloupe outbreak), Stanley H0558 (CDC stool sample, 1995 sprout outbreak), and Montevideo G4639 (1993 tomato outbreak)) were also utilized. All isolates (except for the L. monocytogenes outbreak strains) were selected for spontaneous mutants resistant to 100 ppm of the antibiotic compound nalidixic acid (L. monocytogenes is naturally resistant to 100 ppm nalidixic acid and so was plated on media containing 100 ppm nalidixic acid without need for selection of spontaneous mutants). Isolates were individually incubated for 24 h at 37° C. in 10 mL of Tryptic Soy Broth (Difco, Sparks, Md.)+100 ppm nalidixic acid (TSBN), as an antimicrobial marker and to preclude potential contamination on plates. […]

Salmonella [6] = assay: BS EN 1276 test for sanitizer efficacy of NaClO; type: cell-based, S. enterica; conditions: 0.03% bovine serum, 5 min, 22±1° C.
From the text: as §1, with “plates. Suspensions were centrifuged at 1980×g for 10 min, and resuspended in 5 ml of sterile deionized water and vortexed vigorously for 3 minutes. All strains of each individual species of bacteria were composited in a single sterile 500 mL beaker for inoculation of grape tomatoes.” for “plates.”

E. coli O157:H7 [7] = assay: BS EN 1276 test for sanitizer efficacy of NaClO; type: cell-based; conditions: 0.03% bovine serum, 5 min, 22±1° C.
From the text: (§2) This example illustrates an embodiment of the effectiveness of the inventive composition. […]. The four most acid-resistant strains out of the fourteen were selected for use in this study. These four strains consisted of cattle isolate #'s 199, 758, 851, and 859, provided by Dr. T. G. Nagaraja (Distinguished Microbiology Professor, Kansas State University, Department of Veterinary Medicine). Five outbreak strains of Listeria monocytogenes were used, including L499, L502, L008, L2624, and L2625, provided by Dr. Bassam Annous (USDA-ARS-ERRC). Four serovars of S. enterica (Salmonella Newport H1275 (ERRC culture collection)), St. Paul 02-517-1 (cantaloupe outbreak), Stanley H0558 (CDC stool sample, 1995 sprout outbreak), and Montevideo G4639 (1993 tomato outbreak)) were also utilized. All isolates (except for the L. monocytogenes outbreak strains) were selected for spontaneous mutants resistant to 100 ppm of the antibiotic compound nalidixic acid (L. monocytogenes is naturally resistant to 100 ppm nalidixic acid and so was plated on media containing 100 ppm nalidixic acid without need for selection of spontaneous mutants). Isolates were individually incubated for 24 h at 37° C. in 10 mL of Tryptic Soy Broth (Difco, Sparks, Md.)+100 ppm nalidixic acid (TSBN), as an antimicrobial marker and to preclude potential contamination on plates. Suspensions were centrifuged at 1980×g for 10 min, and resuspended in 5 ml of sterile deionized water and vortexed vigorously for 3 minutes. All strains of each individual species of bacteria were composited in a single sterile 500 mL beaker for inoculation of grape tomatoes.
(§3) L. monocytogenes was plated on Thermo Scientific™ Brilliance™ Listeria Agar (BLA, ThermoFisher Scientific, Fairlawn, N.J.)+100 ppm nalidixic acid without the addition of BLA antimicrobial supplements+0.1% sodium pyruvate (to aid in recovering injured cells) (see e.g., Gurtler, J. B. & L. R. Beuchat, (2005) Appl. Environ. Microbiol. 71:7661-7669; Gurtler, J. B. & Kornacki, J. L. (2009) Lett. Appl. Microbiol. 49:503-509; Wesche, A. M., et al. (2009) J. Food Prot. 72, 1121-1138). Salmonella was plated on tryptic soy agar (Difco)+100 mg/L nalidixic acid+0.1% sodium pyruvate+80 mg/L X-α-Gal (5-Bromo-4-Chloro-3-indolyl-α-D-galactopyranoside) (Research Products Intl., Mt. Prospect, Ill.)+100 mg/L Isopropyl-β-D-thiogalactopyranoside (IPTG, Fisher Scientific). X-α-Gal induces a green color change by salmonellae colonies. E. coli O157:H7 was plated tryptic soy agar (Difco)+100 mg/L nalidixic acid+0.1% sodium pyruvate+175 mg/L red/salmon-Gal (6-Chloro-3-indolyl-β-D-galactopyranoside)+100 mg/L IPTG. Red/salmon-Gal induces a pink color change by E. coli colonies.
(§4) BS EN 1276 Test for Sanitizer Efficacy of Sodium Hypochlorite (NaClO). The British Standard, European Normalization Method 1276 for sanitizers was chosen to evaluate the efficacy low level NaClO. The level of free chlorine ranged from 10 to 48 ppm free chlorine, as tested with the LaMotte Model CL-BR 3624 titration kit (Chestertown, Md.). The BS EN 1276 method as well as the French AFNOR NFT 72170 method has been traditionally used to evaluate sanitizer effectiveness (see e.g., Jacquet, C., and Reynaud, A. (1994) Int. J. Food Microbiol. 22:79-83; Taylor, J. H., et al. (1999) Int. J. Appl. Microbiol. 87:718-725). The BS EN 1276 method involves adding 0.03% bovine albumin to represent clean conditions and 0.3% albumin for dirty conditions. Briefly, 1 ml of either 0.03% or 0.3% bovine serum was added to a sterile 15 ml test tube, followed by 1 ml of the ca. 9 log CFU/ml test solution of each bacterial composite. The suspension was permitted to sit for 2 min and then 8 ml of an appropriately diluted NaClO solution was added to the 2 ml of bacteria-bovine solution suspension where concentrations of sanitizer solution were adjusted to mathematically account for the 2:8 dilution with the pathogen suspension at 10 ppm, 16 ppm, and 48 ppm. All tests were conducted at 22±1° C. […]

Listeria Monocytogenes = assay: BS EN 1276 test for sanitizer efficacy of NaClO; type: cell-based; conditions: 0.03% bovine serum, 5 min, 22±1° C.
From the text: as §2, §3, §4

L. monocytogenes [8] = conditions: cited from earlier work
Salmonella [9] = type: cell-based, S. enterica; conditions: dip-inoculated grape tomatoes, 100 ml wash, 2 min
From the text: as §1

[10] = tested on: Salmonella and E. coli O157:H7; conditions: tomato stem scars, 200 ppm free chlorine, pH-unadjusted; cited from earlier work
[11] = tested on: Salmonella and E. coli O157:H7; conditions: strawberries, 6.44 pH-adjusted free chlorine, 198 ppm; cited from earlier work
Listeria innocua = conditions: Lettuce, Cl 10 PPM, 5.0 min, Francis and O'Beime (2002); cited from earlier work
L. monocytogenes [12] = type: cell-based, Listeria monocytogenes; conditions: dip-inoculated grape tomatoes, 100 ml wash, 2 min
From the text: as §1

Total Coliforms [13] = conditions: Lettuce, Cl 200 PPM, 10 min, Nascimento et al. (2003); cited from earlier work
Aerobic Bacteria = conditions: cited from earlier work
E. coli = conditions: Cl 100 PPM, 10.0 min, cited from earlier work
pH of wash solution = type: physicochemical; conditions: wash solutions of the grape tomato test (Table 4)

OCl [NaClO, sodium hypochlorite]
Inactivation (EHEC; Lettuce & Spinach, Cl 600 PPM, 3.0 min, Niemera, 2007): 0.5 Log CFU
Inactivation (EHEC; Lettuce, Cl 20 PPM, 1.0 min, Li et al. (2001)): 1.1 Log CFU
inactivated log [1]: less than 0.76 log
Inactivation (Salmonella [2]): 1.7 Log CFU
inactivation of pathogens (Total Coliforms [3]): 1.1 log
average log reduction in previous studies [4]: 1.24 log CFU
Inactivation (EHEC & Salmonella; 1.0 min, Koseki et al. (2003)): ca. 1.0 Log CFU
Inactivation (EHEC & Salmonella; 10.0 min, Kondo et al. (2006)): 1.2 Log CFU
reduction, E. coli O157:H7 (E. coli O157:H7 [5]): 2.92 ± 0.38 BC log CFU/g
log CFU/mL reduction (Salmonella [6]; 10 ppm free chlorine): 1.20 B ± 0.10 log CFU/mL
log CFU/mL reduction (Salmonella [6]; 16 ppm free chlorine): 2.72 A ± 0.53 log CFU/mL
log CFU/mL reduction (Salmonella [6]; 48 ppm free chlorine): 0.25 ± 0.25 log CFU/mL
log CFU/mL reduction (E. coli O157:H7 [7]; 10 ppm free chlorine): 0.64 B^a ± 0.32^b log CFU/mL
log CFU/mL reduction (E. coli O157:H7 [7]; 16 ppm free chlorine): 1.79 A ± 0.21 log CFU/mL
log CFU/mL reduction (E. coli O157:H7 [7]; 48 ppm free chlorine): 0.33 ± 0.47^c log CFU/mL
log CFU/mL reduction (Listeria Monocytogenes; 10 ppm free chlorine): 1.22 B ± 0.19 log CFU/mL
log CFU/mL reduction (Listeria Monocytogenes; 16 ppm free chlorine): 2.77 A ± 0.36 log CFU/mL
log CFU/mL reduction (Listeria Monocytogenes; 48 ppm free chlorine): 0.53 ± 0.21 log CFU/mL
Inactivation (L. monocytogenes [8]; Lettuce (4° C.), Cl 200 PPM, 10.0 min, Zhang & Farber (1996)): 1.3 Log CFU
Inactivation (L. monocytogenes [8]; Lettuce, Cl 20 PPM, 0.5 min, Li et al. (2002)): 1.2 Log CFU
Inactivation (L. monocytogenes [8]; Lettuce, Cl 100 PPM, 1.0 min, Hellstrom et al. (2006)): 0.7 Log CFU
Inactivation (L. monocytogenes [8]; Lettuce, Cl 100 PPM, 5.0 min, Akbas and Oimez (2007)): 1.7 Log CFU
reduction, Salmonella (Salmonella [9]): 2.60 ± 0.25 B log CFU/g
inactivation of pathogens [10]: 1.53 log
inactivated log CFU [11]: 1.86 log CFU
Inactivation (Listeria innocua): 1.5 Log CFU
reduction, L. monocytogenes (L. monocytogenes [12]): 3.16 ± 0.61 B log CFU/g
Inactivation (Total Coliforms [13]): <2.0 Log CFU
Inactivation (Aerobic Bacteria; Diced Tomato, Cl 200 PPM, 0.5 min, Simmons et al. (2006)): 0.00 Log CFU
Inactivation (Aerobic Bacteria; Lettuce, Cl 75 PPM, 5 min, Lu et al. (2007)): 2.0 Log CFU
Inactivation (Aerobic Bacteria; Lettuce, Cl 150 PPM, 10 min, Koseki et al. (2001)): 2.0 Log CFU
Inactivation (Aerobic Bacteria; Lettuce, Cl 200 PPM, 0.5 min, Simmons et al. (2006)): 1.30 Log CFU
Inactivation (Aerobic Bacteria; Lettuce, Cl 200 PPM, 10.0 min, Kondo et al. (2006)): 0.9 Log CFU
Inactivation (E. coli; Cabbage/Parsley, Seymot et al. (2002)): ca 1.45 Log CFU
Inactivation (E. coli; Lettuce, Seymor et al. 2002): 0.72 Log CFU
pH Values (pH of wash solution): 9.88
